According to BigSolDB 2.1:

CC(=O)Oc1ccc(C(c2ccc(OC(C)=O)cc2)c2ccccn2)cc1
solubility (mole fraction)
Conditions	288.15 K	293.15 K	298.15 K	303.15 K	308.15 K
in DMAc	0.0391	0.0448	0.0512	0.0583	0.0659
in DMF	0.0372	0.0429	0.0492	0.0561	0.0638
in NMP	0.0643	0.0703	0.0768	0.0837	0.0909
in THF	0.0192	0.0237	0.0291	0.0355	0.0431
in acetone	0.0124	0.0154	0.0189	0.0231	0.0281
in acetonitrile	0.0112	0.0135	0.0162	0.0193	0.0229
in ethanol	0.000471	0.000639	0.000852	0.00113	0.00149
in isopropanol	0.000238	0.000327	0.000443	0.000599	0.000804
in methanol	0.000961	0.00123	0.00155	0.00196	0.00245
in n-butanol	0.000393	0.000537	0.000719	0.000968	0.00128
in n-propanol	0.000462	0.000608	0.000788	0.00102	0.00131
in transcutol	0.00761	0.0092	0.011	0.0131	0.0156
in water	1.32e-07	1.56e-07	1.83e-07	2.14e-07	2.49e-07

Conditions	solubility (mole fraction)
in PEG-400, 288.15 K	0.0132
in PEG-400, 293.15 K	0.0154
in PEG-400, 298.15 K	0.0179
in PEG-400, 303.15 K	0.0206
in PEG-400, 308.15 K	0.0237
